How the values were obtained:
[1] = Pharmacokinetics and tissue distribution in nude mice; assay type: in vivo
Procedure: Female ICR/CD-1 (18–20 g) mice were purchased from Harlan Laboratories (Indianapolis, IN), and female nude mice (nu/nu; 4–6 weeks) were purchased from Frederick Cancer Research and Development Center (Frederick, MD). All animal use and care procedures were approved by the Institutional Animal Care and Use Committee (IACUC) of the University of Alabama at Birmingham. All animals were fed with commercial diet and water ad libitum and were on an alternating 12 h light/dark cycle.
CD-1 and nude mice were randomly divided into groups of three, and were dosed either intravenously (5 mg/kg) or intraperitoneally (10 mg/kg) with BA-TPQ in PEG 400:ethanol:0.9% saline (57.1%:14.3%:28.6%). Before dosing, and at 5, 15, 30, 60 min, and 2, 4, 8, and 24 h after dosing, groups of animals (three/time point) were anesthetized, and blood was collected from the retro-orbital sinus into heparinized tubes. Plasma was obtained by centrifuging the blood samples at 14,000 rpm for 15 min. BA-TPQ was then extracted from plasma and stored at −80 °C. The brain, heart, kidneys, liver, lungs, and spleen were also collected at the same time points during necropsy, blotted on Whatman No. 1 filter paper, trimmed of extraneous fat and connective tissue, weighed, and homogenized in phosphate-buffered saline. The resulting homogenates were stored at −80 °C until further processing and analysis. Urine and feces were collected for 24 hr from mice housed in metabolic cages. After collection, the cages were also washed twice with 200 μL PBS, and the washes were collected and analyzed separately. The total urine was determined as the amount from the urine plus washes 1 and 2. Feces were homogenized in PBS, then extracted using the same procedure used for tissues.
Six hundred microliters of acetonitrile was added to 200 μL of plasma, urine, cage washes (first and second), or tissue/feces homogenate in an Eppendorf tube to precipitate proteins. After centrifugation at 14,000 rpm for 10 min, the supernatant was transferred to a glass tube and evaporated to dryness using a TurboVap® LV Concentration Workstation (Caliper Lifesciences, Hopkinton, MA). The residue was reconstituted with 500 μL ethyl acetate, sonicated for 10 min, and vortexed for 10 sec. Samples were then centrifuged again and the resulting supernatant was transferred to a new glass tube and evaporated to dryness. Finally, samples were reconstituted in 100 μL mobile phase, and 50 μL was injected into the HPLC system for analysis.
The averages of the BA-TPQ concentration in plasma and tissues following intravenous and intraperitoneal administration to three animals per time point were used for pharmacokinetic analyses using a two-compartmental model and a non-compartment model, respectively. The following pharmacokinetic parameters were estimated using Phoenix WinNonlin 6.0 (Mountain View, CA): area under the concentration-time curve (AUC, h·μg/mL), half-life (T½, h), maximum concentration (Cmax, μg/mL), time of the maximum concentration (Tmax, h), and clearance (CL, mL/h/kg), as applicable. Bioavailability (X) was calculated as X= [AUCip × doseiv]/[AUCiv × doseip].

[2] = test system: breast and prostate xenograft tumors; conditions: cited from earlier work
[3] = Binding to mouse plasma proteins (micro-ultrafiltration); assay type: in vitro ADME; conditions: non-Swiss albino, pooled mouse plasma
Procedure: The extent of binding to mouse plasma proteins by BA-TPQ was determined using a micro-ultrafiltration system as previously described. BA-TPQ was dissolved in methanol and added to pooled mouse plasma to yield final concentrations of 0.5 μM and 5.0 μM. Control solutions were prepared in methanol to account for non-specific binding of BA-TPQ to the filter membranes. Duplicate preparations of each concentration were incubated at 37 °C for 1 h, before being placed into the sample reservoirs of Amicon Centrifree® ultrafiltration tubes (30 kDa exclusion; Millipore Corporation, Bedford, MA, USA). The filter systems were then centrifuged at 3000 g (37 °C) for 30 min or until no solution remained in the reservoir. Aliquots were taken from each filtrate and analyzed using the validated HPLC method. The concentrations of the unfiltered plasma and control preparations were also determined using the same protocol and expressed as the “total drug” (T) present, while the amounts of BA-TPQ present in the filtrates were designated as “free drug” (F). The percentage of BA-TPQ bound to plasma proteins was calculated as follows:
(1) Percent Bound=[(T-F)/T]×100

[4] = female, nude (nu/nu), mouse, brain, IP 10 mg/kg
[5] = female, nude (nu/nu), mouse, brain, IV 5 mg/kg
[6] = female, nude (nu/nu), mouse, heart, IP 10 mg/kg
[7] = female, nude (nu/nu), mouse, heart, IV 5 mg/kg
[8] = female, nude (nu/nu), mouse, kidneys, IP 10 mg/kg
[9] = female, nude (nu/nu), mouse, kidneys, IV 5 mg/kg
[10] = female, nude (nu/nu), mouse, liver, IP 10 mg/kg
[11] = female, nude (nu/nu), mouse, liver, IV 5 mg/kg
[12] = female, nude (nu/nu), mouse, lungs, IP 10 mg/kg
[13] = female, nude (nu/nu), mouse, lungs, IV 5 mg/kg
[14] = female, nude (nu/nu), mouse, plasma, IP 10 mg/kg
[15] = female, nude (nu/nu), mouse, plasma, IV 5 mg/kg
[16] = female, nude (nu/nu), mouse, spleen, IP 10 mg/kg
[17] = female, nude (nu/nu), mouse, spleen, IV 5 mg/kg

For `O=C1C(NCc2ccccc2)=CC2=NCCc3c[nH]c1c32` [BA-TPQ, 7-(benzylamino)-1,3,4,8-tetrahydropyrrolo[4,3,2-de]quinolin-8(1H)-one], the “Time of greatest plasma concentration” value ([1]; IP 10 mg/kg) was 1 h, the Cl ([1]; brain, IP 10 mg/kg) was 650 mL/min/kg and the AUC [1, 4] was 770 ng·h/mL. For the same compound, the Cmax [1, 4] was 90 ng/mL, the Tmax [1, 4] was 60 min and the half-life [1, 4] was 244 min. It also gave an AUC [1, 5] of 340 ng·h/mL, a Cmax [1, 5] of 620 ng/mL and a clearance [1, 5] of 1730 mL/min/kg. It also gave a half-life [1, 5] of 22.8 min, an AUC [1, 6] of 7630 ng·h/mL and a Cmax [1, 6] of 6380 ng/mL. For the same compound, the Tmax [1, 6] was 15 min, the half-life [1, 6] was 30 min and the AUC [1, 7] was 6370 ng·h/mL. For the same compound, the Cmax [1, 7] was 48800 ng/mL, the clearance [1, 7] was 83.3 mL/min/kg and the half-life [1, 7] was 5.4 min. For the same compound, the AUC [1, 8] was 12600 ng·h/mL, the Cmax [1, 8] was 10800 ng/mL and the Tmax [1, 8] was 30 min. The half-life [1, 8] was 29.4 min, the AUC [1, 9] was 5480 ng·h/mL and the Cmax [1, 9] was 20800 ng/mL. It also gave a clearance [1, 9] of 100 mL/min/kg, a half-life [1, 9] of 10.8 min and an AUC [1, 10] of 2760 ng·h/mL. It also gave a Cmax [1, 10] of 4560 ng/mL, a Tmax [1, 10] of 4.8 min and a half-life [1, 10] of 31.8 min. The AUC [1, 11] was 710 ng·h/mL, the Cmax [1, 11] was 2710 ng/mL and the clearance [1, 11] was 817 mL/min/kg. It also gave a half-life [1, 11] of 10.8 min, an AUC [1, 12] of 13200 ng·h/mL and a Cmax [1, 12] of 14800 ng/mL. For the same compound, the Tmax [1, 12] was 4.8 min, the half-life [1, 12] was 35.4 min and the AUC [1, 13] was 9180 ng·h/mL. It also gave a Cmax [1, 13] of 18400 ng/mL, a clearance [1, 13] of 66.7 mL/min/kg and a half-life [1, 13] of 21 min. It also gave an AUC [1, 14] of 150 ng·h/mL, a Cmax [1, 14] of 220 ng/mL and a Tmax [1, 14] of 15 min. The half-life [1, 14] was 70.2 min, the bioavailability ([1]; female, nude (nu/nu), mouse, plasma, IP 10 mg/kg vs IV 5 mg/kg, read-out: Intraperitoneal bioavailability) was 100% and the AUC [1, 15] was 40 ng·h/mL. For the same compound, the Cmax [1, 15] was 150 ng/mL, the half-life [1, 15] was 10.2 min and the AUC [1, 16] was 18300 ng·h/mL. For the same compound, the Cmax [1, 16] was 31200 ng/mL, the Tmax [1, 16] was 15 min and the half-life [1, 16] was 99 min. It also gave an AUC [1, 17] of 4980 ng·h/mL, a Cmax [1, 17] of 11000 ng/mL and a clearance [1, 17] of 117 mL/min/kg. It also gave a half-life [1, 17] of 18.6 min, a Cl ([1]; heart, IP 10 mg/kg) of 83 mL/min/kg and a Cl ([1]; kidneys, IP 10 mg/kg) of 50 mL/min/kg. It also gave a Cl ([1]; liver, IP 10 mg/kg) of 217 mL/min/kg, a Cl ([1]; lungs, IP 10 mg/kg) of 50 mL/min/kg and a Cl ([1]; plasma, IP 10 mg/kg) of 3920 mL/min/kg. For the same compound, the Cl ([1]; spleen, IP 10 mg/kg) was 33 mL/min/kg, the “Death in mice on repeated dosing” value ([2]; 10 mg/kg, three times per week for up to six weeks) was “does not cause death” and the “Toxicity in mice (weight loss)” value ([2]; especially at 10 mg/kg, 3 days/week for several weeks) was “systemic toxicity”. For the same compound, the “Tumor growth in mouse xenograft models” value ([2]; prostate and breast cancer xenografts) was “inhibit tumor growth”, the fraction unbound at 1 h ([3]; mouse, read-out: Bound to plasma proteins (overall) (converted)) was roughly 0.3 and the fraction unbound at 1 h, 0.5 μM ([3]; mouse plasma, 0.5 μM, read-out: Bound to plasma proteins (converted)) was 0.37. It also gave a fraction unbound at 1 h, 5 μM ([3]; mouse plasma, 5.0 μM, read-out: Bound to plasma proteins (converted)) of 0.26.
